Results as given in PubChem BioAssay (NCI).
“And” between values parts separate entries of the source, which are not always exact repeats. Equal entries are not always repeated.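 All cell lines were grown in 96-well plates and treated with compound for 48 hours. Here, GI50 denotes the concentration required for 50% inhibition of growth. TGI is the concentration that stops growth completely.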

Legend:
Assay in all cases: inhibition of tumour cell growth, NCI panel, 48 h
[1] = tested on: OVCAR-5 ovarian
[2] = tested on: PC-3 prostate
[3] = tested on: OVCAR-3 ovarian
[4] = tested on: SK-OV-3 ovarian
[5] = tested on: UO-31 renal
[6] = tested on: BT-549 breast
[7] = tested on: M14 melanoma
[8] = tested on: SR leukemia
[9] = tested on: SW-620 colon
[10] = tested on: SF-268 CNS

SMILES	GI50 [1]	TGI [1]	GI50 [2]	TGI [2]	GI50 [3]	TGI [3]	GI50 [4]	TGI [4]	GI50 [5]	TGI [5]	GI50 [6]	TGI [6]	GI50 [7]	TGI [7]	GI50 [8]	TGI [8]	GI50 [9]	TGI [9]	GI50 [10]	TGI [10]
Fc1ccc(CNc2c3ccccc3nc3ccccc23)cc1	2.41 µM	9.25 µM	3.11 µM	16.8 µM	2.37 µM	5.43 µM	2.56 µM	10.1 µM	1.2 µM	4.14 µM	4.66 µM	18 µM	2.97 µM	12.4 µM	2.2 µM	7.75 µM	1.95 µM	6.84 µM	2.74 µM	9.49 µM
COc1cc(C2c3cc4c(cc3[C@H](NC(=O)c3cccs3)C3COC(=O)[C@H]23)OCO4)cc(OC)c1OC (stereo partly drawn)	–	> 95.1 µM	–	0.0236 µM	–	> 100 µM	–	> 100 µM	–	> 44.3 µM	–	16.4 µM	–	33.7 µM	–	17.7 µM	–	> 100 µM	–	> 40.8 µM
CCOCCc1c(O)nc(SC)[nH]c1=O	> 100 µM	> 100 µM	> 100 µM	> 100 µM	> 100 µM	> 100 µM	> 100 µM	> 100 µM	> 100 µM	> 100 µM	> 100 µM	> 100 µM	> 100 µM	> 100 µM	> 100 µM	> 100 µM	> 100 µM	> 100 µM	> 100 µM	> 100 µM
O=C(O)CNC(=O)c1ccccc1O	–	> 100 µM	–	> 100 µM	–	> 100 µM	–	> 100 µM	–	> 100 µM	–	> 100 µM	–	> 100 µM	–	> 100 µM	–	> 100 µM	–	> 100 µM
Cn1cc(C2=C(c3c4n(c5ccccc35)CC(CN)C4)C(=O)NC2=O)c2ccccc21 (stereo not drawn)	7.16 µM	22.1 µM	2.04 µM	9.01 µM	2.82 µM	9.35 µM	1.93 µM	14.7 µM	2.83 µM	8.27 µM	4.46 µM	10.5 µM	3.3 µM	7.33 µM	1.74 µM	13.8 µM	2.98 µM	6.84 µM	3.94 µM	9.57 µM
CN(C)c1ccc(/C=C(\C#N)c2cc3ccccc3n2C)cc1	0.487 µM	> 100 µM	0.204 µM	> 100 µM	0.123 µM	1.27 µM	0.532 µM	> 100 µM	0.82 µM	> 100 µM	0.618 µM	> 100 µM	0.075 µM	> 100 µM	0.0396 µM	–	0.0898 µM	> 100 µM	2.18 µM	> 100 µM
O=C(/C=C/c1ccccn1)c1ccccc1O	2.43 µM	6.8 µM	2.92 µM	8.29 µM	1.71 µM	3.5 µM	5.54 µM	17.9 µM	1.31 µM	2.6 µM	2.98 µM	9.71 µM	2 µM	4.28 µM	1.7 µM	4.99 µM	1.92 µM	4.02 µM	2.53 µM	7.02 µM
NC(=O)c1nnn(Cc2cc(Cl)c(C(=O)c3ccc(Cl)cc3)c(Cl)c2)c1N	> 9.09 µM	> 53.4 µM	–	> 50.2 µM	> 9.09 µM	> 9.09 µM and 25 µM	> 9.09 µM	> 52.9 µM	> 9.09 µM	> 9.09 µM and 42.1 µM	–	> 52.4 µM	> 9.09 µM	> 9.09 µM and 36.7 µM	21.7 µM	> 100 µM	> 9.09 µM	> 9.09 µM and 50.1 µM	> 9.09 µM	> 9.09 µM and 29 µM
CCOC(=O)C1c2[nH]c3ccccc3c2CCN1C(=O)c1ccco1 (stereo not drawn)	–	–	–	> 10 µM	–	> 10 µM	–	> 10 µM	–	–	–	> 10 µM	–	> 10 µM	–	> 10 µM	–	> 10 µM	–	> 10 µM
CC1(C)CC(=O)C(C(c2cccc(O)c2O)C2C(=O)CC(C)(C)CC2=O)C(=O)C1	–	> 100 µM	–	> 100 µM	–	> 100 µM	–	> 100 µM	–	–	–	> 100 µM	–	> 100 µM	–	> 100 µM	–	> 100 µM	–	> 100 µM
O=C(c1ccccn1)c1nnn2ccccc12	–	> 100 µM	–	> 100 µM	–	> 100 µM	–	> 100 µM	–	–	–	> 100 µM	–	> 100 µM	–	> 100 µM	–	> 100 µM	–	> 100 µM
